Measurements reported in ChEMBL document CHEMBL1134220, “The synthesis of beta-peptides containing guanidino groups” (Bioorg Med Chem Lett, 2001).

Experiment: pKa was determined
Assay type: physicochemical

pKa: 13.5
SMILES: N=C(N)N [GUANIDINE]
